The record followed here is ChEMBL document CHEMBL1141406, “Design, synthesis, and evaluation of naphthalene-sulfonamide antagonists of human CCR8” (J Med Chem, 2007).

Series [1] is described as follows: Apparent permeability from basolateral to apical side of Caco-2 cells. The format is ADME, cell-based. To be noted: human.
A short description of series [2]: Apparent permeability from apical to basolateral side of Caco-2 cells. The format is ADME, cell-based. To be noted: human. In general terms: Caco-2 cells form a polarised layer with tight junctions and transporters.
Series [3] can be described thus: Ratio of apparent permeability from basolateral to apical over apical to basolateral in Caco-2 cells. To be noted: human, read-out: Selectivity ratio.
The target in series [4] is T1, C-C chemokine receptor type 8 (Homo sapiens, UniProt P51685). Kind of series: Binding affinity to human CCR8 expressed in L1.2 cells by FMAT assay. It is filed as cell-based.
T1 sequence (P51685 whole entry): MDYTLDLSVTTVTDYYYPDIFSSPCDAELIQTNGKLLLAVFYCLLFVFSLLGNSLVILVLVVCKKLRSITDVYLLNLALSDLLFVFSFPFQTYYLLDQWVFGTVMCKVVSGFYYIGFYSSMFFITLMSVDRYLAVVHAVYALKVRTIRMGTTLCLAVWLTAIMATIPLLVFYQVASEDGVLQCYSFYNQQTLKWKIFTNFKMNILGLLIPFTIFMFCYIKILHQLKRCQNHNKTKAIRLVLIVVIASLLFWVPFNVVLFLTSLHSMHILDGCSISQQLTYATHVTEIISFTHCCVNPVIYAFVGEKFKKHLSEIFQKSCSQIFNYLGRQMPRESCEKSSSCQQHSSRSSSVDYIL
The nature of series [5]: Intrinsic clearance in liver microsomes. Particulars: human.
Series [6] is described as follows: Stability in mouse plasma. It is filed as ADME, cell-free.
For series [7], the target named is T1, C-C chemokine receptor type 8. The experiment in a line: Antagonist activity against human CCR8 expressed in CHO/Galpha16 cells assessed as inhibition of CCL1-induced increase of intracellular calcium by FLIPR assay. The format is functional, cell-based. (Calcium assays in cells follow changes in intracellular calcium, usually with a dye or a luminescent sensor.)

In series [8] the target is T2, Cholecystokinin receptor type A (Rattus norvegicus) (UniProt P30551).
T2 sequence (whole entry): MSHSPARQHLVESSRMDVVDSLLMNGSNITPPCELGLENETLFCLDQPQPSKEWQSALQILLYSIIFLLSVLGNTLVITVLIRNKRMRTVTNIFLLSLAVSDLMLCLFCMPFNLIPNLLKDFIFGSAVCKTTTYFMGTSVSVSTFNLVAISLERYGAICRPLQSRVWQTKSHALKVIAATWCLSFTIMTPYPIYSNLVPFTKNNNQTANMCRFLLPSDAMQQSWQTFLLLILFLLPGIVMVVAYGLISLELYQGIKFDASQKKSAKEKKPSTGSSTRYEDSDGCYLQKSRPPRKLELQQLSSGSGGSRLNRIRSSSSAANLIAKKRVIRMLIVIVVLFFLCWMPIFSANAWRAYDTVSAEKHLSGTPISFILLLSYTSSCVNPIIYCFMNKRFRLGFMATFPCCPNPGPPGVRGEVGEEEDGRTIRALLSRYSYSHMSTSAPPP
The experiment in a line: Inhibition of rat CCKA at 10 uM.

For series [9], the species on record is Rattus norvegicus. Kind of series: Inhibition of rat calcium channel L type at dihydropyridine site at 10 uM.
For series [10], the target named is 5-hydroxytryptamine receptor 2A (Homo sapiens) (UniProt P28223). Kind of series: Inhibition of human 5HT2A receptor at 10 uM.
Chain of 5-hydroxytryptamine receptor 2A (Homo sapiens) (P28223 whole entry): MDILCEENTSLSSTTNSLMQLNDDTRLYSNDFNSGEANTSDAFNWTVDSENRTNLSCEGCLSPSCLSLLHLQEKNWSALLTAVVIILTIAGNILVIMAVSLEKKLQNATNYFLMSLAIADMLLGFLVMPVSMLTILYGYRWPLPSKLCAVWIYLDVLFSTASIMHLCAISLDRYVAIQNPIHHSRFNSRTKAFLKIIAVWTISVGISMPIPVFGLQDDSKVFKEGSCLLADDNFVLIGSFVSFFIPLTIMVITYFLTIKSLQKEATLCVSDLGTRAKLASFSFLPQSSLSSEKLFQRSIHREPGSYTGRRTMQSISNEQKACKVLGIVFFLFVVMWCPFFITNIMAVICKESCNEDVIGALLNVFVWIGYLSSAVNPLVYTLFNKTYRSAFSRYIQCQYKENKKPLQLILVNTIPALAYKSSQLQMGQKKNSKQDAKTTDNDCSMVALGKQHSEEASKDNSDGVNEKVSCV
Series [11] can be described thus: Volume of distribution of steady state in rat at 10 mg/kg, po and 1 mg/kg, iv. The format is ADME, organism-based. Particulars: in vivo, read-out: Vss.
A short description of series [12]: Stability in dog at 10 mg/kg, po and 1 mg/kg, iv. The format is ADME, organism-based, Canis lupus familiaris. Particulars: in vivo.
Series [13] is described as follows: Clearance in dog at 10 mg/kg, po and 1 mg/kg, iv. It is filed as ADME, organism-based, Canis lupus familiaris. Particulars: in vivo.
Series [14] concerns the target Beta-2 adrenergic receptor (Homo sapiens) (UniProt P07550). The experiment in a line: Inhibition of human recombinant adrenergic beta 2 receptor at 10 uM.
Series [15] in a line: Clearance in rat at 10 mg/kg, po and 1 mg/kg, iv. It is filed as ADME, organism-based. Particulars: in vivo.
A short description of series [16]: Stability in rat at 10 mg/kg, po and 1 mg/kg, iv. The format is ADME, organism-based. Particulars: in vivo.
Series [17] in a line: Volume of distribution of steady state in dog at 10 mg/kg, po and 1 mg/kg, iv. It is filed as ADME, organism-based, Canis lupus familiaris. To be noted: in vivo, read-out: Vss.
Series [18] is filed under the species Rattus norvegicus. Kind of series: Inhibition of rat non-selective opiate receptor at 10 uM.
Series [19] can be described thus: Bioavailability in rat at 10 mg/kg, po and 1 mg/kg, iv. It is filed as ADME, organism-based. To be noted: in vivo.
For series [20], the target named is D(1A) dopamine receptor (Homo sapiens) (UniProt P21728). The experiment in a line: Inhibition of human recombinant dopamine D1 receptor at 10 uM.
Chain of D(1A) dopamine receptor (Homo sapiens) (P21728 whole entry): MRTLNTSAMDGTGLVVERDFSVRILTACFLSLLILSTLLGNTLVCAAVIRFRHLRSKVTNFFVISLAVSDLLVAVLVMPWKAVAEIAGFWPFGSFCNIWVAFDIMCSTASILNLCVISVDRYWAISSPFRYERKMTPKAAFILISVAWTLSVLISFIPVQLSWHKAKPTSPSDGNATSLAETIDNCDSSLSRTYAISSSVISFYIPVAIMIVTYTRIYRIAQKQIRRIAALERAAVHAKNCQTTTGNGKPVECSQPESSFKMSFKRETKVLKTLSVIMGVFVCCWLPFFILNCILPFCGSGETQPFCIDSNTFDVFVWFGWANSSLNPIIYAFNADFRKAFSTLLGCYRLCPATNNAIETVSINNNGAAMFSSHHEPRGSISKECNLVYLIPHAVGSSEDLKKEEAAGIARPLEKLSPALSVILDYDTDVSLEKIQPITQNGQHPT
Series [21] addresses Histamine H2 receptor (Rattus norvegicus) (UniProt P25102). The experiment in a line: Inhibition of rat histamine H2 receptor at 10 uM.
For series [22], the target named is Beta-1 adrenergic receptor (Homo sapiens) (UniProt P08588). The experiment in a line: Inhibition of human adrenergic beta 1 receptor at 10 uM.
For series [23], the target named is T3, 5-hydroxytryptamine receptor 1A (Homo sapiens) (UniProt P08908).
T3 sequence (whole entry): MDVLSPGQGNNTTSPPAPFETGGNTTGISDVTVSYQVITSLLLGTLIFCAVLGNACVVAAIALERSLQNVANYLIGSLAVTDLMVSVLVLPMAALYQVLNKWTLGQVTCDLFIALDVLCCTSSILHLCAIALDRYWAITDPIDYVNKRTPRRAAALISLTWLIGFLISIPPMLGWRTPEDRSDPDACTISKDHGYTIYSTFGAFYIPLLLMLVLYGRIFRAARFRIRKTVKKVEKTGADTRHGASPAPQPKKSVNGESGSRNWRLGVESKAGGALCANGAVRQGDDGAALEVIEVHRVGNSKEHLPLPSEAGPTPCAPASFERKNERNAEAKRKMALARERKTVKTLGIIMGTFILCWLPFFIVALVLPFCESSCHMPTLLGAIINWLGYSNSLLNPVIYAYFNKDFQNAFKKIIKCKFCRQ
Kind of series: Inhibition of human recombinant 5HT1A receptor at 10 uM.

Series [24] concerns the target Sodium-dependent dopamine transporter (Rattus norvegicus) (UniProt P23977). The experiment in a line: Inhibition of rat dopamine transporter at 10 uM.
Series [25] is filed under the species Rattus norvegicus. Kind of series: Inhibition of rat calcium channel L type at benzothiazepine site at 10 uM.
The target in series [26] is Sodium-dependent serotonin transporter (Rattus norvegicus) (UniProt P31652). Kind of series: Inhibition of rat serotonin transporter at 10 uM.
Chain of Sodium-dependent serotonin transporter (Rattus norvegicus) (P31652 whole entry): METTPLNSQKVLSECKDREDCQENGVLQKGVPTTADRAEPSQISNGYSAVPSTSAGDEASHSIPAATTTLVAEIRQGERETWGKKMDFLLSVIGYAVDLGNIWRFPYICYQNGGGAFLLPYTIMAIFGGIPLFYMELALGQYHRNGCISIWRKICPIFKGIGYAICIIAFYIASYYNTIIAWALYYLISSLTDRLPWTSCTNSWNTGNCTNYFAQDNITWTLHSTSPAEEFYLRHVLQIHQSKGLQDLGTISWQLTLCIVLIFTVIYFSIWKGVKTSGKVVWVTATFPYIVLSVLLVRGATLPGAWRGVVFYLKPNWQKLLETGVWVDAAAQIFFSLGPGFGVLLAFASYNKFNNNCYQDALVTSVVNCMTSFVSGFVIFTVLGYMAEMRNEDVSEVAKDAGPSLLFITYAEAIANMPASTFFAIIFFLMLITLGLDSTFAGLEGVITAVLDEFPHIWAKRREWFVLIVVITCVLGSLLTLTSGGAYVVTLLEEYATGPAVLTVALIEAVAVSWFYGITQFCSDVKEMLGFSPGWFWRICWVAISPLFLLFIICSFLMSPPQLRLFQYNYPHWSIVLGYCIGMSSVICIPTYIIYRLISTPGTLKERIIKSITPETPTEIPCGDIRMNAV
Series [27] deals with Cytochrome P450 3A4 (Homo sapiens, UniProt P08684). Kind of series: Inhibition of CYP3A4. It is filed as ADME.
Chain of Cytochrome P450 3A4 (P08684 whole entry): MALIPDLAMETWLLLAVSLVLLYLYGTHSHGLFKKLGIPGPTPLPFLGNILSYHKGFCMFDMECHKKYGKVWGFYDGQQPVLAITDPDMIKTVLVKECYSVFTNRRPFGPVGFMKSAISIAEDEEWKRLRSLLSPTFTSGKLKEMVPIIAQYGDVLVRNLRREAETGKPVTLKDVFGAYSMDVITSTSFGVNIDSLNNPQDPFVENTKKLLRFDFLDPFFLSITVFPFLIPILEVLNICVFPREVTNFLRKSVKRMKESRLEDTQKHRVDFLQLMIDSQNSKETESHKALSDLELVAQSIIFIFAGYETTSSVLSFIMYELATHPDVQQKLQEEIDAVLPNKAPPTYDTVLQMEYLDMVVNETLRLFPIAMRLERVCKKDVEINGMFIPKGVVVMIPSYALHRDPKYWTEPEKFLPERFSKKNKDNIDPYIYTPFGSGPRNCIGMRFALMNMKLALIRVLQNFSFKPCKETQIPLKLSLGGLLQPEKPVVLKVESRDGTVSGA
For series [28], the target named is Voltage-gated inwardly rectifying potassium channel KCNH2 (Homo sapiens, UniProt Q12809). Kind of series: Binding affinity to hERG expressed in HEK293 cells. The format is cell-based.
Chain of Voltage-gated inwardly rectifying potassium channel KCNH2 (Q12809 whole entry): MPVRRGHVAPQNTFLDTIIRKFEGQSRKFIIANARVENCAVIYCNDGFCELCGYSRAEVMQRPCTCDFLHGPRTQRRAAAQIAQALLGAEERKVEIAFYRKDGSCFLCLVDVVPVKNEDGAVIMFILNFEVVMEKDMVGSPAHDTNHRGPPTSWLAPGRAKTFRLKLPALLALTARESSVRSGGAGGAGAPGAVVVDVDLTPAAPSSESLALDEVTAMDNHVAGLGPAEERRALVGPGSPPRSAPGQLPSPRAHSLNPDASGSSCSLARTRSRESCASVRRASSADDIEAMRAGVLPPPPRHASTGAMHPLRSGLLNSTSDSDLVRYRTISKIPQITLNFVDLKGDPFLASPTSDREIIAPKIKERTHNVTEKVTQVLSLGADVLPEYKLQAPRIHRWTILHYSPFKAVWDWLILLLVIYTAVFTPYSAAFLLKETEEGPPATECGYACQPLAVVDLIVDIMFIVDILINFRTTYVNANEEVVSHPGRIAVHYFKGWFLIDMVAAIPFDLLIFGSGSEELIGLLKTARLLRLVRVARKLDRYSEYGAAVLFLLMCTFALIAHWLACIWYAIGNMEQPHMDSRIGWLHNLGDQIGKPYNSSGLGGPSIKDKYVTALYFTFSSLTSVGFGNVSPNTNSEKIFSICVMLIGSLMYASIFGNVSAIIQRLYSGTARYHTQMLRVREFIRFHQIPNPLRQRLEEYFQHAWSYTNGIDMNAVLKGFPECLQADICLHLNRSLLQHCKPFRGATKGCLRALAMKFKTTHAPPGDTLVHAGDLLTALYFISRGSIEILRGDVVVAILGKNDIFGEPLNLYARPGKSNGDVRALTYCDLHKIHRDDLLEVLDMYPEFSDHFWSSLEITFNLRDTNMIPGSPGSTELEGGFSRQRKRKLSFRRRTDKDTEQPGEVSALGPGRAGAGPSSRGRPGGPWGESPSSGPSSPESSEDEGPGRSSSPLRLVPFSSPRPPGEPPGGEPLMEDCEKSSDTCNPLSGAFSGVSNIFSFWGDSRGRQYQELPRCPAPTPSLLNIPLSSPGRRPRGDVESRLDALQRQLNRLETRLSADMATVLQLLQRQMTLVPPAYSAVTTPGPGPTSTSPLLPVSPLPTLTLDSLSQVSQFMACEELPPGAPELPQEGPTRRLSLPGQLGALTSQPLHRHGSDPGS
The target in series [29] is Adrenergic receptor alpha-1 (Homo sapiens) (UniProt P35348+P25100+P35368). The experiment in a line: Inhibition of non selective adrenergic alpha-1 receptor at 10 uM. It is filed as protein assay.
A short description of series [30]: Bioavailability in dog at 10 mg/kg, po and 1 mg/kg, iv. The format is ADME, organism-based, Canis lupus familiaris. Particulars: in vivo.
Series [31] addresses Muscarinic acetylcholine receptor (Homo sapiens) (UniProt P20309+P08173+P11229+P08172+P08912). Kind of series: Inhibition of peripheral non-selective guinea pig muscarinic receptor at 10 uM. Particulars: Cavia porcellus, target entry is the homologue from another species. The format is protein assay.
In series [32] the target is 5-hydroxytryptamine receptor 1B (Homo sapiens) (UniProt P28222). Kind of series: Inhibition of 5HT1B receptor at 10 uM.
Chain of 5-hydroxytryptamine receptor 1B (Homo sapiens) (P28222 whole entry): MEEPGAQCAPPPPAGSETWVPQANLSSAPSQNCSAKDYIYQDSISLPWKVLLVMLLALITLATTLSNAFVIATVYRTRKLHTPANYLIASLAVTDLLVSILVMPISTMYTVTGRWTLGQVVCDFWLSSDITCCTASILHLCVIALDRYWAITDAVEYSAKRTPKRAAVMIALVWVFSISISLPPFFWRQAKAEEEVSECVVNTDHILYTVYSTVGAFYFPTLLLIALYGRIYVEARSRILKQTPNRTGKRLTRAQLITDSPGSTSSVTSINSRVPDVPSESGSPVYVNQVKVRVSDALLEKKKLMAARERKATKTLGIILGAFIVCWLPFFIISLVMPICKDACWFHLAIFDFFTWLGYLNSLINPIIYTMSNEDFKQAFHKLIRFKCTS

Broadly, the Papp B→A is the apparent permeability from the basolateral to the apical side of a cell layer. By Papp A→B is commonly meant the apparent permeability from the apical to the basolateral side of a cell layer. One may read the Ki as the equilibrium dissociation constant of an inhibitor or competing ligand from its target. By CLint scaled is commonly meant the capacity of the preparation to metabolise the compound, expressed as a volume cleared per time. High values mean faster metabolism, low ones greater metabolic stability. For orientation: half-life means how long it takes for the measured level to halve. Higher therefore signals slow loss. One may read the IC50 as the concentration at which inhibition is half-maximal. In general, inhibition refers to the change of the read-out against control, counted positive when it falls. One may read the bioavailability as dose-corrected exposure relative to a reference, in per cent.

Chain of Beta-2 adrenergic receptor (Homo sapiens) (P07550 whole entry, looked up): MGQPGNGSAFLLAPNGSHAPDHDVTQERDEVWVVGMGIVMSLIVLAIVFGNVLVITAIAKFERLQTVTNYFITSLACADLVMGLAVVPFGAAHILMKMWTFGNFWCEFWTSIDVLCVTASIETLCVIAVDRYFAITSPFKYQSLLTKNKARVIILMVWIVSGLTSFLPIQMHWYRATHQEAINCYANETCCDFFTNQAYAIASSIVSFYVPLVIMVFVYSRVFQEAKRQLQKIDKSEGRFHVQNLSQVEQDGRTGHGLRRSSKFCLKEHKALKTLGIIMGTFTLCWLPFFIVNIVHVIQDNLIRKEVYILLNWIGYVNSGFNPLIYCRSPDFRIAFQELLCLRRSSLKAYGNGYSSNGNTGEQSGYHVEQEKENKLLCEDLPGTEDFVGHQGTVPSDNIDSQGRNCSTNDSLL
Chain of Histamine H2 receptor (Rattus norvegicus) (P25102 whole entry): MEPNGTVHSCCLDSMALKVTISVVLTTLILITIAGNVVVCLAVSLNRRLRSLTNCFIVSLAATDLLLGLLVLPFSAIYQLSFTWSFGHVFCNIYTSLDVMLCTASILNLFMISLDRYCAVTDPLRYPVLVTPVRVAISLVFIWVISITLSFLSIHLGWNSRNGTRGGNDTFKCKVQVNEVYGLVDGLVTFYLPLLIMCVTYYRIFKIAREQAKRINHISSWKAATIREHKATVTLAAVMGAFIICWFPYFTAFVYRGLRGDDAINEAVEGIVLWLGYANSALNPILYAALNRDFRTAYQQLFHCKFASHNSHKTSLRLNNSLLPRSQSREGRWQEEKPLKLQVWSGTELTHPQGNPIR

Take `CCNC(=O)N1CCC(NS(=O)(=O)c2ccc(NC(=O)c3ccccc3C)c3ccccc23)CC1`: the Papp B→A in [1] is 22 ×10⁻⁶ cm/s. Also, the Papp A→B in series [2] was determined as 1.9 ×10⁻⁶ cm/s. Besides, the efflux ratio in series [3] was determined as 11. Besides, the affinity in series [4] corresponds to a Ki of 2.2 nM. In addition, the CLint scaled in [5] is 46.7 mL/min/kg.

Consider `CCOC(=O)N1CCC(NS(=O)(=O)c2ccc(NC(=O)c3ccccc3)c3ccccc23)CC1`, for which, in series [4], the Ki was determined as 0.17 nM. The half-life in series [6] is 0.5 h.

For `CCCC(=O)N1CCC(NS(=O)(=O)c2ccc(NC(=O)c3ccccc3C)c3ccccc23)CC1`, the basolateral-to-apical permeability (Papp B→A) in series [1] turned out to be 34 ×10⁻⁶ cm/s. Also, the apical-to-basolateral permeability (Papp A→B) in series [2] stood at 25 ×10⁻⁶ cm/s. In [3], the efflux ratio was found to be 1.3. Moreover, the IC50 in series [7] stood at 0.3 nM. Further, the affinity in series [4], expressed as Ki, was 0.3 nM. Besides, the intrinsic clearance (CLint scaled) in series [5] was 51.7 mL/min/kg.

As to `CCOC(=O)N1CCC(NS(=O)(=O)c2ccc(NC(=O)c3ccccc3C)c3ccccc23)CC1`, the inhibition in series [8] was -1.01%; in [9], 5.81%; in series [10], 18.4%; in [14], 21.5%; in series [18], 21.4%; in series [20], -5.14%. Further, the inhibition in series [21] was 9.16%; in [22], 2.44%; in series [23], 10.5%; in series [24], -9.19%; in series [25], 10.2%; in [26] it was 12%. In addition, the inhibition in series [29] is -8.21%; in [31], 15.6%; in series [32], 7.13%. The figures for the Vd in [11] and in series [17] were 1.6 L/kg and 1.5 L/kg, respectively. In addition, the Papp B→A in [1] was 24 ×10⁻⁶ cm/s. For the same compound, the figures for the half-life in [12], in series [16] and in [6] were 3.7 h, 2.6 h and 8.2 h, respectively. Besides, the clearance in series [13] was 7 mL/min/kg; in series [15] it was 23.3 mL/min/kg. In series [2], the Papp A→B worked out at 17 ×10⁻⁶ cm/s. For the same compound, in series [3], the efflux ratio was determined as 1.4. The bioavailability stood at 2% in series [19] and 10% in series [30]. Besides, the Ki is 1.6 nM in series [4] and greater than 10000 nM in series [28]. This compound showed an IC50 in series [27] greater than 10000 nM. Besides, the CLint scaled in series [5] was 95 mL/min/kg.

In the case of `COc1ccc(NS(=O)(=O)c2ccc(NC(=O)c3ccccc3)c3ccccc23)cc1`, the half-maximal inhibitory concentration (IC50) in [7] worked out at 150 nM. Besides, in series [4], the Ki was 42.6 nM.

`CCCC(=O)N1CCC(NCc2ccc(NC(=O)c3ccccc3C)c3ccccc23)CC1`: in series [7], the IC50 is greater than 3300 nM.

Consider `CCCC(=O)N1CCC(NS(=O)(=O)c2ccc(NC(=O)c3cccc(C)c3)c3ccccc23)CC1`, for which, in [7], the IC50 turned out to be 5.1 nM.

Consider `CCCC(=O)N1CCC(NS(=O)(=O)c2ccc(NC(=O)c3ccc(C)cc3)c3ccccc23)CC1`, for which, in [7], the IC50 came to 9.5 nM.

Take `CCCC(=O)N1CCC(NS(=O)(=O)c2ccc(NC(=O)c3ccccn3)c3ccccc23)CC1`: the concentration for half-maximal inhibition (IC50) in [7] came to 41.7 nM.

Regarding `CCCC(=O)N1CCC(NS(=O)(=O)c2ccc(NC(=O)c3cnccn3)c3ccccc23)CC1`, in [7], the IC50 is 1000 nM.

For `CCCC(=O)N1CCC(NS(=O)(=O)c2ccc(NC(=O)C3CC3)c3ccccc23)CC1`, the IC50 in series [7] was found to be 368 nM.

As for `CCCC(=O)N1CCC(NS(=O)(=O)c2ccc(NC(=O)C(CC)c3ccccc3)c3ccccc23)CC1` (stereo not drawn), the IC50 in series [7] came out at 7.65 nM.

For `Cc1ccccc1C(=O)Nc1ccc(S(=O)(=O)NC2CCN(C(=O)OCCCN3CCCC3)CC2)c2ccccc12`, the concentration for half-maximal inhibition (IC50) in [7] came out at 4.2 nM.

Regarding `CCCC(=O)N1CCC(NS(=O)(=O)c2ccc(NC(=O)C3CCCC3)c3ccccc23)CC1`, the 50% inhibitory concentration (IC50) in series [7] came out at 365 nM.

With `CCCC(=O)N1CCC(NS(=O)(=O)c2ccc(NC(=O)c3ccoc3)c3ccccc23)CC1`, in series [7], the concentration for half-maximal inhibition (IC50) came out at 1520 nM.

As to `CCCC(=O)N1CCC(NS(=O)(=O)c2ccc(NC(=O)c3ccc(F)cc3)c3ccccc23)CC1`, the half-maximal inhibitory concentration (IC50) in [7] came out at 59.5 nM.

As for `CCCC(=O)N1CCC(NS(=O)(=O)c2ccc(NC(=O)c3ccc(CC)cc3)c3ccccc23)CC1`, the concentration for half-maximal inhibition (IC50) in series [7] came out at 10.8 nM.
